Reference: patent EP0938474B1, “CYCLOPROPYLINDOLE COMPOUNDS AND THEIR USE AS PRODRUGS” (AUCKLAND UNISERVICES LIMITED, priority 1996, dated 1998)

Test system: UV4
Experiment: Cytotoxicity (growth inhibition), 4 h drug exposure, methylene blue staining
Assay type: cell-based, rodent
Conditions: Cricetulus griseus; UV4 mutant AA8 line defective in excision repair; 4 hours exposure, then three days incubation
Protocol: Compounds of the invention were tested for cytotoxicity against four different cell lines, all of which are widely available in the art. AA8 is a wild type rodent cell line. UV4 is a mutant AA8 cell line defective in excision repair, and hypersensitive to many alkylating agents. EMT6 is a widely-used rodent line. SKOV is a human ovarian cell line.
Cell culture assays were performed in 96-well microtitre trays. Compounds of the invention were added in culture medium, using serial two-fold dilutions to provide duplicate cultures at five different concentrations for each of eight drugs (plus eight controls) per tray. Drugs were dissolved in water or DMSO immediately prior to addition to the cell culture. After 4 hours, drugs were removed by washing cultures three times with fresh medium, and the trays were incubated for a futher three days. Cell density was then determined by staining with methylene blue as described previously (Finlay, G. J., et al, Anal. Biochm. 1984, 139, 272-277) and the IC50 was calculated as the drug concentration providing 50% inhibition of growth relative to the controls.

**Q.** How did the IC50 turn out when `COc1cc2cc(C(=O)N3CC(COS(C)(=O)=O)c4c3cc(N)c3ccccc43)[nH]c2c(OC)c1OC` (stereo not shown) [15o, 5-amino-1-[(methanesulfonyloxy)methyl]-3-[(5,6,7-trimethoxyindol-2-yl)carbonyl]-1,2-dihydro-3H-benz[e]indole] was run?
**A.** 665 nM
